Results: paper PMC6602202, “Enteroendocrine peptides regulate feeding behavior via controlling intestinal contraction of the silkworm Bombyx mori” (PLoS ONE, 2019)

Legend:
[1] = tested on: D. melanogaster; conditions: cited from earlier work
Excerpt: Peptides having C-terminal RYamide sequences constitute a neuropeptide Y (NPY) family, which is conserved both in vertebrates and invertebrate.

[2] = tested on: B. mori larvae; conditions: cited from earlier work
Excerpt: Among the feeding regulatory peptides in insects, several peptides are known as ‘brain-gut peptides’, which are expressed and produced in the brain and intestinal organs. […] These peptides may regulate not only the physiological functions related to digestion and intestinal lipid metabolisms but also the intestin ... || The myoinhibitory activities of AT and GSRYa-1 and -2 in the foregut (pharynx and esophagus) and hindgut (ileum) (Figs 5E, 5F and 6E) seem to be linked to the delay in feeding initiation in B. mori larvae (Figs 1D and 6B).

[3] = tested on: foregut of Helicoverpa armigera; conditions: cited from earlier work
Excerpt: (§1) AT-producing EEs (Fig 2C and 2D) and GSRYamide-producing EEs (Fig 2E and 2F) also have the potential to deliver secretory granules containing peptidyl factors to the hemocoel side through a cellular membrane. Those EEs have similar cellular morphology to EEs releasing other arthropod neuropeptide CCAP (Crustacean cardioactive peptide) observed in the American cockroac ...

[4] = tested on: foregut of Lacanobia oleracea; conditions: cited from earlier work
Excerpt: as §1

[5] = tested on: D. melanogaster; conditions: cited from earlier work; remark: listed apart in the source
Excerpt: (§2) The myoinhibitory activities of AT and GSRYa-1 and -2 in the foregut (pharynx and esophagus) and hindgut (ileum) (Figs 5E, 5F and 6E) seem to be linked to the delay in feeding initiation in B. mori larvae (Figs 1D and 6B).

[6] = tested on: Schistocerca. gregaria; conditions: cited from earlier work
[7] = tested on: gut; conditions: Periplaneta americana; cited from earlier work
Excerpt: as §1

[8] = tested on: B. mori larvae; experiment: Feeding behavioral assay (latency to first bite), 2-day-old fifth-instar larvae; type: in vivo, Bombyx mori; conditions: 100 μL injected dorsolaterally into the hemolymph, after 16 h diet deprivation, n = 3
Experimental: A part of the eluents of the fractions from RP-HPLC as well as synthetic peptide solutions was evaporated to dryness and dissolved in 100 μL distilled water just prior to the bioassay. The feeding cycles of 2-day-old fifth-instar B. mori larvae were synchronized by diet deprivation for 16 h. After diet deprivation, the larvae were anesthetized by submerging in icy water for 15 min. Then, 100 μL sample was injected dorsolaterally into the hemolymph. After injection, the larvae were placed in front of artificial diet blocks, and then the latency to their first bites as the initiation of feeding (first bite) after sample-injection was measured as reported previously. Statistical analysis was performed using a one-way analysis of variance (one-way ANOVA), then a post hoc Dunnett’s test. Reproducibility was confirmed at least twice by assays using different populations of larvae.

[9] = tested on: BNGR-A5; experiment: aequorin-based bioluminescent calcium assay, CHO cells expressing BNGR-A5; type: cell-based, Bombyx mori; conditions: aequorin luminescence 20 s, triplicates, three experiments
Experimental: (§3) Activity of the BNGR-A5 and -16 receptors were analyzed using Chinese hamster ovary (CHO) cells transiently transfected with plasmids for expression of each BNGR, calcium-sensitive reporter aequorin and chimeric G protein that couple with receptor activation to an intracellular Ca^2+-increase independent of the endogenous receptor signaling cascade. The entire open reading frames of BNGR-A5 and -16 were cloned into pcDNA3.1(+) vector (Invitrogen) with a Kozak translation initiation sequence incorporated at 5´end. Plasmids for codon optimized aequorin and chimeric G proteins were used as described previously. […]
(§4) The transfected cells were detached using PBS supplemented with 0.2% EDTA and rinsed of the culture plates with the assay medium—phenol red free DMEM/F12 with L-glutamine and 15 mM HEPES (PAN Biotech, Wimborne, Dorset, UK), 0.1% BSA (Sigma-Aldrich Co. LLC.) and 1% penicillin/streptomycin (Life Technologies). […] Emitted luminescence signal corresponding to the ligand-induced intracellular Ca^2+ release was recorded for 20 s using the GloMax-Multi+ Detection System (Promega). […]

[10] = tested on: BNGR-A16; experiment: aequorin-based bioluminescent calcium assay, CHO cells expressing BNGR-A16; type: cell-based, Bombyx mori; conditions: aequorin luminescence 20 s, triplicates, three experiments
Experimental: as §3, §4

[11] = tested on: pharynx; experiment: Spontaneous contraction of the pharynx in dissected open larvae; set-up: species or system Bombyx mori; conditions: 10^−9–10^−5 M, 27°C, n = 5
Experimental: (§5) The opened head and abdominal portion of 2-day-old fifth-instar larvae (fed ad libitum and non-fed for 16 h) were washed twice with B. mori Ringer’s solution and incubated for 3 min at 27°C to stabilize the movement. After incubation, the contractile movements of the larval foregut and hindgut, particularly the spontaneous contraction of the pharynx and ileum (predominantly contracting area in hindgut) were observed and recorded using a digital microscope USB2.0 DigiScope II v2^TM (CHRONOS, Taipei, Taiwan). 100 μL of B. mori Ringer’s solution was added to the examined gut at 60 s after starting recording. Furthermore, 100 μL of B. mori Ringer’s solution (vehicle control) and 100 μL peptide-containing solution (10^−9–10^−5 M of peptides dissolved in B. mori Ringer’s solution) were exposed over gut at 120 s after a recording start. The contractile movements were analyzed using ImageJ software (https://imagej.net/Fiji) with the Optic flow plug-in (Gaussian window MSE). […] The position of the lines used for the kymograph analyses (x-y, z-w) were determined by Optic flow analyses. The waveform of the kymographs, corresponding to the visible contractions in the recorded movies, were quantified and converted to myograms. […] Invisible contractions in the recorded movie and extremely small amplitudes in the myograms were considered as no significant contractions. […]

[12] = tested on: ileum; experiment: Spontaneous contraction of the ileum in dissected open larvae; set-up: species or system Bombyx mori
Experimental: The opened head and abdominal portion of 2-day-old fifth-instar larvae (fed ad libitum and non-fed for 16 h) were washed twice with B. mori Ringer’s solution and incubated for 3 min at 27°C to stabilize the movement. After incubation, the contractile movements of the larval foregut and hindgut, particularly the spontaneous contraction of the pharynx and ileum (predominantly contracting area in hindgut) were observed and recorded using a digital microscope USB2.0 DigiScope II v2^TM (CHRONOS, Taipei, Taiwan). 100 μL of B. mori Ringer’s solution was added to the examined gut at 60 s after starting recording. Furthermore, 100 μL of B. mori Ringer’s solution (vehicle control) and 100 μL peptide-containing solution (10^−9–10^−5 M of peptides dissolved in B. mori Ringer’s solution) were exposed over gut at 120 s after a recording start. The contractile movements were analyzed using ImageJ software (https://imagej.net/Fiji) with the Optic flow plug-in (Gaussian window MSE). The direction of contractile movement was represented by the color and arrows described in the ‘Direction’ map. The position of the lines used for the kymograph analyses (x-y, z-w) were determined by Optic flow analyses. The waveform of the kymographs, corresponding to the visible contractions in the recorded movies, were quantified and converted to myograms. The number of contractions in 60 s was defined as the ‘contraction frequency’. Invisible contractions in the recorded movie and extremely small amplitudes in the myograms were considered as no significant contractions. The evaluation of visible contraction was defined by giving a threshold at the half length of the observed amplitude. The effect of synthetic peptides was represented by the ratio of the ‘contraction frequency’ at 60–120 s to 120–180 s (%) due to the extendedly various frequencies by individuality; the pharynx (30-40/60s) and hindgut (20-40/60s). This methodology by kymograph is substantially corresponding to the previously used assays for intestinal contraction. […]

[13] = tested on: foregut and hindgut; experiment: Wash-out of contraction inhibition, isolated gut; set-up: species or system Bombyx mori; conditions: washing with the vehicle without the ligands
Experimental: as §5

[14] = tested on: esophagus; experiment: Esophageal contraction in intact transparent larvae; type: in vivo, Bombyx mori
Experimental: Transparent larvae were prepared by feeding an artificial diet containing 0.05% melamine (Wako Pure Chemical Industries) starting from 0-day-old fifth-instar larvae. […] The visible effect took place in 2-day-old fifth-instar larvae compared to normally fed larvae. The feeding behavioral assay of transparent larva was performed in the same way as that of normal larvae. Each transparent larva was surrounded with a soft sponge and held with both sides by two slide glasses. Transmitted light enabled to illuminate the shape and movement of the shadowed esophagus portion. The contraction of foregut, particularly ‘forward contraction wave’ and ‘peristaltic squeeze’ at the esophagus were observed using a digital microscope to measure the number of contractions per minute. The ‘peristaltic squeezes’ at 8 h and 16 h in non-fed larvae were unmeasurable because of the limit of detection in our observation using digital microscope. 100 μL of distilled water (vehicle control) and 100 μL peptide-containing solution (10^−7–10^−4 M of peptides dissolved in distilled water) were injected dorsolaterally into the hemolymph. After injection, the numbers of contractions per minute of the esophagus were counted from the data of 3 min observation. Statistical analysis was performed using a one-way ANOVA, then a post hoc Dunnett’s test. Reproducibility was confirmed at least twice by assay using different populations of larvae.

[15] = tested on: BNGR-A16; conditions: cited from earlier work
[16] = tested on: intestinal contractions; conditions: cited from earlier work
Excerpt: as §2

[17] = tested on: foregut, midgut and hindgut; conditions: other insect species; 48 (foregut), 27, 49 (midgut), 50, 51 (hindgut); cited from earlier work
Excerpt: AT was originally isolated from extracts of heads of pharate adult tobacco hornworm, Manduca sexta as an allatoregulatory peptide. […] Consistently, it is possible in other insect species that ...

[18] = tested on: hindgut of Leucophaea maderae; conditions: cited from earlier work
Excerpt: as §1

[19] = 10^−7–10^−4 M, 100 μL injected dorsolaterally, fed ad libitum transparent larvae, counted over 3 min, P < 0.05, n = 5

In the case of neuropeptide F [NPF], the “effect on larval feeding behavior” value [1] is given as “regulate larval feeding behavior”.

For short neuropeptide F (sNPF) -2 [sNPF-2], the “effect on feeding initiation, peptides” value [2] is given as “feeding acceleratory effects that can shorten the latency to the initiation of feeding”.

For allatostatin [AST, reference compound], the “effect on spontaneous contraction of the foregut, H. armigera” value [3] is listed as “regulate spontaneous contraction of the foregut” and the “effect on spontaneous contraction of the foregut, L. oleracea” value (from here on “effect … L. oleracea”) [4] is listed as “regulate spontaneous contraction of the foregut”.

For “tachykinin-related peptides [B. mori TRPs]”, the “effect on feeding initiation, peptides” value [2] is given as “feeding acceleratory effects that can shorten the latency to the initiation of feeding”.

For short neuropeptide F [sNPF], the “effect on feeding initiation, peptides” value [2] is listed as “feeding acceleratory effect”, the “effect on food intake and body weight” value [5] is listed as “stimulates food intake and body weight gain” and the “effect on food intake” value [6] is listed as “an inhibitory effect on food intake”.

For Crustacean cardioactive peptide [CCAP], the “effect on gut contraction” value [7] is listed as “multiple roles, including gut contraction”.

For allatotropin, the “effect on latency to the first bite, synthetic peptides” value ([8]; significant by one-way ANOVA (P < 0.01)) was “prolonged the latency to the first bite in a dose-dependent manner”, the “ED50, prolongation of the latency to the first bite” value ([8]; synthetic peptides) was 1000 nM and the “affinity, BNGR-A5” value [9] was “much higher affinity to AT than BNGR-A16”. For the same substance, the “response, BNGR-A16” value [10] was “response of BNGR-A5 (Fig 3 an arrow) as well as BNGR-A16 to AT”, the “relative frequency of contraction, pharynx, fed ad libitum” value ([11]; larvae fed ad libitum, 60–120 s vs 120–180 s) was “decreased relative frequency of contraction” and the “relative frequency of contraction, pharynx, non-fed” value ([11]; larvae non-fed for 16 h) was “decreased the frequency”. For the same substance, the “contraction of ileum (movie)” value ([12]; 10^−6 M exposed at 120 s, larvae fed ad libitum) was “the contraction of ileum was inhibited”, the “relative frequency of contraction, ileum, fed ad libitum” value ([12]; larvae fed ad libitum, 10^−9–10^−5 M, 27°C, 60–120 s vs 120–180 s, n = 5) was “decreased relative frequency of contraction” and the “relative frequency of contraction, ileum, non-fed” value ([12]; larvae non-fed for 16 h, 10^−9–10^−5 M, 27°C, n = 5) was “decreased the frequency”. For the same substance, the “reversibility of inhibition on washing” value [13] was “did not resume even after washing”, the “forward contraction wave and peristaltic squeeze (movie)” value ([14]; 10^−5 M solution injected dorsolaterally into the hemolymph) was “the forward contraction wave and peristaltic squeeze were inhibited” and the “number of forward contraction waves” value [14, 19] was “decreased numbers of forward contraction waves and peristaltic squeezes in a dose-response manner”. The “number of peristaltic squeezes” value [14, 19] was “decreased numbers of forward contraction waves and peristaltic squeezes in a dose-response manner”, the AT receptor assignment [15] was “the AT receptor is assigned to be BNGR-A16” and the “effect on intestinal contractions, other Lepidopteran species” value [16] was “stimulatory effect”. For the same substance, the “myoregulatory activity on foregut, midgut and hindgut” value [17] was “myoregulatory activities”, the “effect on spontaneous contraction of the foregut, H. armigera” value [3] was “regulate spontaneous contraction of the foregut” and the “effect … L. oleracea” value [4] was “regulate spontaneous contraction of the foregut”.

For myosuppressin (leukomyosuppressin), the “effect … L. oleracea” value [4] is given as “regulates spontaneous contraction of the foregut” and the “effect on spontaneous contraction of the hindgut, L. maderae” value [18] is given as “regulates spontaneous contraction of the foregut of Lacanobia oleracea [66] and the hindgut of Leucophaea maderae”.
